Reference: paper PMC11873939, “Target Identification with Live-Cell Photoaffinity Labeling and Mechanism of Action Elucidation of ARN23765, a Highly Potent CFTR Corrector” (Journal of Medicinal Chemistry, 2025)

Assays:
F508del-CFTR [1] = biological target: T1, F508del-CFTR (Homo sapiens, UniProt P13569, DEL508-508); test: HS-YFP functional assay in CFBE41o- cells stably overexpressing F508del-CFTR; format: cell-based; settings: 24 h treatment; for EC50 / HS-YFP assay in CFBE41o- cells EC50: 3 nM-10 µM range; for HS-YFP assay in CFBE41o- cells Emax: values normalized to DMSO-incubated cells
T1 construct: expressed in transfected cells
T1 sequence (P13569 with tags, fused parts or gaps DEL508-508): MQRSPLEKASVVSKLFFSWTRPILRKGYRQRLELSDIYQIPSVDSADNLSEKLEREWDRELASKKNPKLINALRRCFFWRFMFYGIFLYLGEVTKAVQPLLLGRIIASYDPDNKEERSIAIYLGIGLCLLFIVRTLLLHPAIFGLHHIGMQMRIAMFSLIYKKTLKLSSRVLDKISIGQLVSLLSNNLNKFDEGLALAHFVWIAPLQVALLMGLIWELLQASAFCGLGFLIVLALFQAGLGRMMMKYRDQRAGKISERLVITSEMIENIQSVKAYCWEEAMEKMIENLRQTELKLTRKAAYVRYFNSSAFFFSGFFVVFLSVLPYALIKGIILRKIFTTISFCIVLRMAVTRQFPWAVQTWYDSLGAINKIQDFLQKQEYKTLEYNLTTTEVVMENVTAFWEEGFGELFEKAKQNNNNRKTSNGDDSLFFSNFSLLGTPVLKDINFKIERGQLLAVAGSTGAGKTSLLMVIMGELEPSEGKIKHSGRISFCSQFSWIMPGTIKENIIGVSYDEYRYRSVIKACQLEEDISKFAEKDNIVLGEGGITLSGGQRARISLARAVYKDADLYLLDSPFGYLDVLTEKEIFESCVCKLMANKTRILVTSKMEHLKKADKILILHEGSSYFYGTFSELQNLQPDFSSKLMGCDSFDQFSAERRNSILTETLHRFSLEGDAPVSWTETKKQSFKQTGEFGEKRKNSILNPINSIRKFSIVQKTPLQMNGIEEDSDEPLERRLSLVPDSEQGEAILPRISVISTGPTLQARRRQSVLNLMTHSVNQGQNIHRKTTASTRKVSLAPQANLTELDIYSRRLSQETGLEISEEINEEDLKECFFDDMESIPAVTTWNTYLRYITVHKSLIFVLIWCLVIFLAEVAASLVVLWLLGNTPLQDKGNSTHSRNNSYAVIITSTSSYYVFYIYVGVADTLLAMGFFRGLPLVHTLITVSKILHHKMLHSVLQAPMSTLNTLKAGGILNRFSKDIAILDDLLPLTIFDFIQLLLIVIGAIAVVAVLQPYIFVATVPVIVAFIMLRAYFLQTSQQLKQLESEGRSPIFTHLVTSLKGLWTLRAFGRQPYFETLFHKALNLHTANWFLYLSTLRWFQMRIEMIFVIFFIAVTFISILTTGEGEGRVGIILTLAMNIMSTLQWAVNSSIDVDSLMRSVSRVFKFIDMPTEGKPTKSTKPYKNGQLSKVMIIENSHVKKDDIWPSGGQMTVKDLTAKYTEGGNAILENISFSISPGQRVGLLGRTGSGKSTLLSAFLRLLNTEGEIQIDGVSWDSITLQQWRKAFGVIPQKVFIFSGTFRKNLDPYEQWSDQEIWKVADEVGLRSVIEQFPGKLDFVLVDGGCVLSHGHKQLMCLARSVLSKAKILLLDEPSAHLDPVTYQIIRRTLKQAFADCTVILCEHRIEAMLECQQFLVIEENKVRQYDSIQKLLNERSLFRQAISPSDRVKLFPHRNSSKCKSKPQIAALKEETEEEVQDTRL
Description: These analogues were tested in the functional assay on the human bronchial epithelia-derived cell line, CFBE41o-, which stably overexpresses F508del-CFTR and the halide-sensitive yellow fluorescent protein (HS-YFP).[31] […]
HS-YFP-based assay for CFTR activity
Twenty-four hours after seeding on 96-well plates, CFBE41o- cells stably over-expressing F508del-CFTR and the HS-YFP were treated with test compounds at different concentrations in the 3 nM-10 µM range.1 Cells treated with vehicle alone (DMSO) and with ARN23765, respectively, served as negative and positive controls. The following day, cells were washed with PBS containing (in mM) 137 NaCl, 2.7 KCl, 8.1 Na2HPO4, 1.5 KH2PO4, 1.0 CaCl2, and 0.5 MgCl2. Cells were then incubated for 25 min with […] of PBS plus forskolin (20 µM) and VX-770 (1 µM) to maximally stimulate F508del-CFTR. Cells were then transferred to a microplate reader (FluoStar Galaxy; BMG Labtech, Offenburg, Germany) for CFTR activity determination. The plate reader was equipped with high-quality excitation (HQ500/20X: 500 ± 10 nm) and emission (HQ535/30M: 535 ± 15 nm) filters for YFP (Chroma Technology). Each assay comprised a continuous 14 s fluorescence reading, 2 s before and 12 s after injection of […] of an iodide-containing solution (PBS with Cl- replaced by I-; final I- concentration […]). Data were normalized to the initial background-subtracted fluorescence. To determine I- influx rate, the final 11 s of the data for each well were fitted with an exponential function to extrapolate initial slope (dF/dt). Reproducibility of results was confirmed by performing three independent experiments. […]

wt-CFTR = biological target: T2, wt-CFTR (Homo sapiens, UniProt P13569); test: Live-cell photoaffinity labeling, streptavidin pull-down and CFTR Western blot; format: binding; settings: wt-CFTR CFBE41o- cells, probe 1 μM; for CFTR in streptavidin pull-down (WB) after PAL: 2 h, UV 365 nm
T2 construct: expressed in transfected cells
T2 sequence (P13569 whole entry): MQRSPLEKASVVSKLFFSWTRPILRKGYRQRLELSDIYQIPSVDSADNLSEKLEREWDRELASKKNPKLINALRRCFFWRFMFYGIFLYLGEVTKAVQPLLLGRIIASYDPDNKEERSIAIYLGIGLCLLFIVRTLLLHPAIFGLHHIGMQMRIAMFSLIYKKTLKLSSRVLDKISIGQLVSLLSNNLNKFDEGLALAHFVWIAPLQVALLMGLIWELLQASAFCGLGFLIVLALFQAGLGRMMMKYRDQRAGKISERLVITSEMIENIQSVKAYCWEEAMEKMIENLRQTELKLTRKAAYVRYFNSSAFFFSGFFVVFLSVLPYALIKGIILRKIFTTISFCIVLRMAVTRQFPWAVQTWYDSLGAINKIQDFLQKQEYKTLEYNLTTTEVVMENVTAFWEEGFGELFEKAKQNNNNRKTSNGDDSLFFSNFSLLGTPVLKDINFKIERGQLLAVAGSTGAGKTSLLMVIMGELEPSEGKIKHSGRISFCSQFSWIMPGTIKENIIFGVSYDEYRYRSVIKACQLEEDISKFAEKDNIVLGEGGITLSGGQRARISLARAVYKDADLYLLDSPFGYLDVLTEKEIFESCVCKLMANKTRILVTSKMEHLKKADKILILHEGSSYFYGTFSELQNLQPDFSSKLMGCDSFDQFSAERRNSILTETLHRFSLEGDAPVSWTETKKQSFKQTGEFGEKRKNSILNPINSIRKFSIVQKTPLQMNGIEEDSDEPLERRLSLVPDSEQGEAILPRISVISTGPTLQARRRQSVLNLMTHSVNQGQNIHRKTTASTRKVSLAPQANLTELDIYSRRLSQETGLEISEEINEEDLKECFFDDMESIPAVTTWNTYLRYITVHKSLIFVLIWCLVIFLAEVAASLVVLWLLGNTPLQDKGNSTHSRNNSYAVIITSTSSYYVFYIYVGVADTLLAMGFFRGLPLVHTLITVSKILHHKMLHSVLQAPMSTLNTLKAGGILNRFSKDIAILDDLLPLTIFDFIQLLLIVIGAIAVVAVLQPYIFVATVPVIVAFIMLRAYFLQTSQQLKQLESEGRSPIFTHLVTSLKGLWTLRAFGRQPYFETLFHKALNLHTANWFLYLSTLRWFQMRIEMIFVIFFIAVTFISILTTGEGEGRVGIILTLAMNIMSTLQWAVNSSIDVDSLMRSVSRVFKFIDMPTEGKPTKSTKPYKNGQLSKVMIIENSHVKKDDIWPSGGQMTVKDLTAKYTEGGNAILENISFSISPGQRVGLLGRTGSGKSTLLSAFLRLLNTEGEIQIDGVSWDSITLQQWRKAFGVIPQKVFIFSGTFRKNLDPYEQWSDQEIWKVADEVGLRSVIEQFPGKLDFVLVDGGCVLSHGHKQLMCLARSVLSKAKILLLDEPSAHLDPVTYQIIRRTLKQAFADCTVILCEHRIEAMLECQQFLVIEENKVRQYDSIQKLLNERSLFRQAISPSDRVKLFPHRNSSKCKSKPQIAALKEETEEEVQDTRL
Description: (§1) Wt-CFTR or F508del-CFTR CFBE41o- cells were plated at 2–2.5 × 10^6 cells/plate in 6 cm diameter dishes. The day after, sodium butyrate (5–2.5 mM) was added for 24 h; next, the medium was exchanged with fresh one supplemented with DMSO (0.25%) (276855, Sigma-Aldrich) or probe (1 μM). For competition experiments, a 25-fold excess of ARN23765 (25 μM) was added 30 min before probe’s addition. For the analysis of “corrected” F508del-CFTR, F508del-CFTR CFBE41o- cells were kept at 27 °C for 24 h before adding the probes. Probes were incubated with cells for 2 h, then the medium was removed, and plates were washed twice with phosphate buffer saline (PBS). Cells were placed on ice and irradiated for 5 min at a wavelength of 365 nm using a 100-W UV-lamp (95–0127–02 model B100-AP, Analytik Jena). Cells were harvested with trypsin (T4299, Sigma-Aldrich), washed with PBS (D8537, Sigma-Aldrich), and pellets were stored at −80 °C until used, centrifuged at 300 × g and washed twice with PBS (D8537, Sigma-Aldrich). Pellets from in-cell photoaffinity labeling with alkyne-probes (PAP_1 and PAP_2) were lysed in PBS plus protease inhibitor cocktail (78429, Thermo Scientific) by sonication. The suspension was centrifuged at 800 × g for 20 min at 4 °C to discard nuclei and cell debris. The total extracted proteins were quantified with the bicinchoninic acid (BCA) protein assay (23225, Thermo Scientific) and subjected to CuAAC before proceeding with pull-down. Pellets from in-cell photoaffinity labeling with desthio-biotinylated (DS-biot) probes (PAP_1 DS-biot, PAP_2 DS-biot, PAP_N1 DS-biot, PAP_N2 DS-biot) were lysed with a modified RIPA buffer [50 mM tris-HCl pH 8, 150 mM NaCl, 0.5% Triton-X100, 0.2% SDS, 1 mM ethylenediaminetetraacetic acid (EDTA)] supplemented with protease inhibitor cocktail and centrifuged at 10.000× g for 10 min. The protein content in the supernatant was quantified by BCA protein assay. Protein lysate (200 μg) was diluted to 800 μL and the Triton-X100 percentage was reduced to 0.2% before proceeding to pull-down.
Copper-catalyzed azide–alkyne cycloaddition (CuAAC) was performed according to a previously described protocol.[62] Briefly, to the protein preparation (250 μL at 1 mg/mL protein concentration) the following reagents were added at the indicated final concentrations: 100 μM 5/6-TAMRA-azide-desthiobiotin (CLK-1110–5, Jena Bioscience), 1.0 mM tris-(2-carbossietil)phosphine (TCEP, C4706, Sigma-Aldrich), 100 μM tris-[(1-benzyl-1H-1,2,3-triazol-4-yl)methyl]amine (TBTA, 678937, Sigma-Aldrich), 1.0 mM CuSO4.5H2O (Sigma), and 0.8% sodium dodecyl sulfate (SDS). TBTA was first dissolved in DMSO at 83.5 mM and then diluted with four volumes of tert-butanol. The reaction was mixed by vortexing and incubated for 1 h at 25 °C. After the reaction time, proteins were precipitated with 5 volumes of cold acetone overnight at −20 °C. Samples were centrifuged for 20 min at 20.000× g, and the pellets were washed with methanol, air-dried, and finally resuspended with 600 μL of 1% SDS. SDS concentration was then diluted to 0.2% with PBS before proceeding to pull-down.
(§2) High capacity streptavidin agarose (20359, Thermo Scientific) (25 μL) was added to PAP-labeled cell extracts for 1 h at room temperature under gentle rotation. The streptavidin beads were collected by centrifugation and washed four times with lysis buffer. Resin-bound proteins were eluted with 45 μL of 5 mM biotin (B4501, Sigma-Aldrich) for 30 min at room temperature and analyzed with Western blot for CFTR expression. Input samples (4 and 8 μg for wt-CFTR and F508del-CFTR CFBE41o-, respectively) were collected immediately before incubation with streptavidin resin. Input and pulled-down samples were analyzed with WB as described in the supplementary methods.

CFTR = test: Live-cell photoaffinity labeling in CFTR–/– CFBE41o- cells (control); format: binding, human; settings: probe 1 μM, 2 h
F508del-CFTR [2] = biological target: T1, F508del-CFTR; test: Live-cell photoaffinity labeling, streptavidin pull-down and CFTR Western blot; format: binding; settings: for CFTR forms in streptavidin pull-down (WB) after PAL: F508del-CFTR CFBE41o- cells kept at 27 °C for 24 h (low-temperature rescue) before PAL; for CFTR in streptavidin pull-down (WB) after PAL: F508del-CFTR CFBE41o- cells, probe 1 μM, 2 h, UV 365 nm
Description: as §1, §2

EC50 (F508del-CFTR [1]) | HS-YFP assay in CFBE41o- cells Emax (F508del-CFTR [1]) | Effect in CFTR rescuing (HS-YFP assay, Figure S2) (F508del-CFTR [1]; vs DMSO) | CFTR in streptavidin pull-down (WB) after PAL (wt-CFTR) | CFTR in streptavidin pull-down (WB) after PAL (F508del-CFTR [2]) | HS-YFP assay in CFBE41o- cells EC50 (F508del-CFTR [1]) | SMILES | CFTR in streptavidin pull-down (WB) after PAL (CFTR) | CFTR forms in streptavidin pull-down (WB) after PAL (F508del-CFTR [2]) | CFTR in pull-down (WB) after PAL with alkyne probe and CuAAC DS-biot tagging (wt-CFTR; UV irradiation, CuAAC)
3.3 nM | 3 |  |  |  |  | C#Cc1ccc(O[C@H]2CCCc3c(C(F)(F)F)nn(-c4cccc(C(=O)N(C)c5ccc6c(c5)OC(F)(F)O6)c4)c32)cc1 [Compound 1, (S)-N-(2,2-Difluorobenzo[d][1,3]dioxol-5-yl)-3-(7-(4-ethynylphenoxy)-3-(trifluoromethyl)-4,5,6,7-tetrahydro-1H-indazol-1-yl)-N-methylbenzamide] |  |  | 
24 nM | 1.2 | no significant effect |  |  |  | CN(C(=O)c1cccc(-n2nc(C(F)(F)F)c3c2[C@@H](Oc2ccc(C(=O)O)cc2)CCC3)c1)c1ccc(C2(C(F)(F)F)N=N2)cc1 [Compound 2, (S)-4-((1-(3-(Methyl(4-(3-(trifluoromethyl)-3H-diazirin-3-yl)phenyl)carbamoyl)phenyl)-3-(trifluoromethyl)-4,5,6,7-tetrahydro-1H-indazol-7-yl)oxy)benzoic Acid] |  |  | 
122 nM | 2.7 |  | consistently captured | consistently captured |  | C[C@H]1NC(=O)N[C@H]1CCCCCC(=O)NCCOCCOCCOCCn1cc(CCC2(CCNC(=O)c3ccc(O[C@H]4CCCc5c(C(F)(F)F)nn(-c6cccc(C(=O)N(C)c7ccc8c(c7)OC(F)(F)O8)c6)c54)cc3)N=N2)nn1 [PAP_1 DS-biot, N-(2,2-Difluorobenzo[d][1,3]dioxol-5-yl)-N-methyl-3-((S)-7-(4-((2-(3-(2-(1-(18-((4S,5R)-5-methyl-2-oxoimidazolidin-4-yl)-13-oxo-3,6,9-trioxa-12-azaoctadecyl)-1H-1,2,3-triazol-4-yl)ethyl)-3H-diazirin-3-yl)ethyl)carbamoyl)phenoxy)-3-(trifluoromethyl)-4,5,6,7-tetrahydro-1H-indazol-1-yl)benzamide] | did not detect CFTR | bound and pulled down both F508del-CFTR immature (band B) and mature (band C) protein | 
< 3 nM | 2.8 |  |  |  |  | C#CCCC1(CCNC(=O)c2ccc(O[C@H]3CCCc4c(C(F)(F)F)nn(-c5cccc(C(=O)N(C)c6ccc7c(c6)OC(F)(F)O7)c5)c43)cc2)N=N1 [PAP_1, (S)-3-(7-(4-((2-(3-(But-3-yn-1-yl)-3H-diazirin-3-yl)ethyl)carbamoyl)phenoxy)-3-(trifluoromethyl)-4,5,6,7-tetrahydro-1H-indazol-1-yl)-N-(2,2-difluorobenzo[d][1,3]dioxol-5-yl)-N-methylbenzamide] |  |  | 
480 nM | 1.4 |  | consistently captured | consistently captured |  | C[C@H]1NC(=O)N[C@H]1CCCCCC(=O)NCCOCCOCCOCCn1cc(-c2ccc(O[C@H]3CCCc4c(C(F)(F)F)nn(-c5cccc(C(=O)N(C)c6ccc(C7(C(F)(F)F)N=N7)cc6)c5)c43)cc2)nn1 [PAP_2 DS-biot, N-Methyl-3-((S)-7-(4-(1-(18-((4S,5R)-5-methyl-2-oxoimidazolidin-4-yl)-13-oxo-3,6,9-trioxa-12-azaoctadecyl)-1H-1,2,3-triazol-4-yl)phenoxy)-3-(trifluoromethyl)-4,5,6,7-tetrahydro-1H-indazol-1-yl)-N-(4-(3-(trifluoromethyl)-3H-diazirin-3-yl)phenyl)benzamide] | did not detect CFTR | bound and pulled down both F508del-CFTR immature (band B) and mature (band C) protein | 
385 nM | 2.1 |  |  |  |  | C#Cc1ccc(O[C@H]2CCCc3c(C(F)(F)F)nn(-c4cccc(C(=O)N(C)c5ccc(C6(C(F)(F)F)N=N6)cc5)c4)c32)cc1 [PAP_2, (S)-3-(7-(4-Ethynylphenoxy)-3-(trifluoromethyl)-4,5,6,7-tetrahydro-1H-indazol-1-yl)-N-methyl-N-(4-(3-(trifluoromethyl)-3H-diazirin-3-yl)phenyl)benzamide] |  |  | barely detect a band corresponding to CFTR
 |  |  | not pulled down | not pulled down | devoid of activity | C[C@H]1NC(=O)N[C@H]1CCCCCC(=O)NCCOCCOCCOCCn1cc(CCC2(CCNC(=O)c3ccc(O[C@H]4CCCc5c(C(F)(F)F)nn(-c6cccc(C(=O)Nc7ccc8c(c7)OC(F)(F)O8)c6)c54)cc3)N=N2)nn1 [PAP_N1 DS-biot, N-(2,2-Difluorobenzo[d][1,3]dioxol-5-yl)-3-((S)-7-(4-((2-(3-(2-(1-(18-((4S,5R)-5-methyl-2-oxoimidazolidin-4-yl)-13-oxo-3,6,9-trioxa-12-azaoctadecyl)-1H-1,2,3-triazol-4-yl)ethyl)-3H-diazirin-3-yl)ethyl)carbamoyl)phenoxy)-3-(trifluoromethyl)-4,5,6,7-tetrahydro-1H-indazol-1-yl)benzamide] |  |  | 
 |  |  | not pulled down | not pulled down | devoid of activity | C[C@H]1NC(=O)N[C@H]1CCCCCC(=O)NCCOCCOCCOCCn1cc(-c2ccc(O[C@H]3CCCc4c(C(F)(F)F)nn(-c5cccc(C(=O)Nc6ccc(C7(C(F)(F)F)N=N7)cc6)c5)c43)cc2)nn1 [PAP_N2 DS-biot, 3-((S)-7-(4-(1-(18-((4S,5R)-5-Methyl-2-oxoimidazolidin-4-yl)-13-oxo-3,6,9-trioxa-12-azaoctadecyl)-1H-1,2,3-triazol-4-yl)phenoxy)-3-(trifluoromethyl)-4,5,6,7-tetrahydro-1H-indazol-1-yl)-N-(4-(3-(trifluoromethyl)-3H-diazirin-3-yl)phenyl)benzamide] |  |  | 
